Measured values: BindingDB's records for doi:10.1016/j.bmcl.2004.12.073 (Vernalis (R&D), 2005)

Target: Cyclin-A2/Cyclin-dependent kinase 2 (Homo sapiens, UniProt P24941)
Assay: CDK Inhibition Assay
Conditions: pH 7.5; 22 °C
Experimental: In vitro kinase assay using purified CDK2/Cyclin A was incubated at room temperature with substrate, and test compounds in the presence of 100 uM ATP/ [gamma-33P] ATP. Assays were performed in 96-well polypropylene plates. 33P incorporation into substrate was measured using a scintillation counter.

IC50: 230 nM
Compound: CC(C)c1cnn2c(Nc3ccc(S(C)(=O)=O)cc3)cc(Cl)nc12 [5-chloro-N-(4-methanesulfonylphenyl)-3-(propan-2-yl)pyrazolo[1,5-a]pyrimidin-7-amine]
